≈ marks a conversion by molar mass, not a printed value.
Key:
Format in all cases: functional
Conditions in all cases: read-out: ED50 (the source's name)
HCT-15 = test: Cytotoxicity against human HCT15 cells
A549 = test: Cytotoxicity against human A549 cells
SK-MEL-2 = test: Cytotoxicity against human SK-MEL-2 cells
SK-OV-3 = test: Cytotoxicity against human SKOV3 cells
XF498 = test: Cytotoxicity against human XF498 cells

COc1cccc2c1C(=O)c1c(O)c3c(c(O)c1C2=O)C[C@@](O)(C(=O)CO)C[C@@H]3O[C@H]1C[C@H](N)[C@H](O)[C@H](C)O1 [DOXORUBICIN]
EC50 (HCT-15): 0.07 µg/mL (≈ 0.129 µM) | EC50 (A549): 0.03 µg/mL (≈ 0.0552 µM) | EC50 (SK-MEL-2): 0.03 µg/mL (≈ 0.0552 µM) | EC50 (SK-OV-3): 0.15 µg/mL (≈ 0.276 µM) | EC50 (XF498): 0.15 µg/mL (≈ 0.276 µM)

— ChEMBL document CHEMBL1150681, “New acetylenic acids from the marine sponge Stelletta species” (2003)
